“And” between values parts separate entries of the source, which are not always exact repeats. Identical values can stand only once. Inconclusive results and toxic doses are left out. The calls were made as follows: active = survival T/C of 150% or more; inactive = T/C below 125% in these data.
System: BDF1 mice, B16 melanoma ip, median survival T/C
Assay: NCI In Vivo Anticancer Drug Screen. Data for tumor model B16 Melanoma (intraperitoneal) in B6D2F1 (BDF1) mice
Settings: endpoint: median survival time, higher = longer survival
Method in brief: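 Survival or tumor size is measured after treatment of tumor-bearing mice and normalised to the vehicle-treated control group.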

[1] = dose: 3.0 mg/kg/injection, schedule: Q01DX009 (ip), vehicle: saline with Tween-80
[2] = dose: 12.5 mg/kg/injection, schedule: Q01DX009 (ip), vehicle: Klucel (hydroxypropylcellulose) (HPC)
[3] = dose: 50.0 mg/kg/injection, schedule: Q01DX009 (ip), vehicle: Klucel (hydroxypropylcellulose) (HPC)
[4] = dose: 100.0 mg/kg/injection, schedule: Q01DX009 (ip), vehicle: Klucel (hydroxypropylcellulose) (HPC)
[5] = dose: 25.0 mg/kg/injection, schedule: Q01DX009 (ip), vehicle: saline with Tween-80
[6] = dose: 50.0 mg/kg/injection, schedule: Q01DX009 (ip), vehicle: saline with Tween-80
[7] = dose: 100.0 mg/kg/injection, schedule: Q01DX009 (ip), vehicle: saline with Tween-80
[8] = dose: 12.5 mg/kg/injection, schedule: Q01DX009 (ip), vehicle: saline with Tween-80
[9] = dose: 6.25 mg/kg/injection, schedule: Q01DX009 (ip), vehicle: saline with Tween-80
[10] = dose: 200.0 mg/kg/injection, schedule: Q01DX009 (ip), vehicle: Klucel (hydroxypropylcellulose) (HPC)
[11] = dose: 25.0 mg/kg/injection, schedule: Q01DX009 (ip), vehicle: Klucel (hydroxypropylcellulose) (HPC)

Measured: T/C

Cc1[nH]c(=O)[nH]c(=O)c1N(CCF)CCCl
inactive: dose: 1.8 mg/kg/injection, schedule: Q01DX009 (ip), vehicle: saline with Tween-80 110 % of control | [1] 110 % of control | dose: 5.0 mg/kg/injection, schedule: Q01DX009 (ip), vehicle: Klucel (hydroxypropylcellulose) (HPC) 100 % of control | dose: 8.0 mg/kg/injection, schedule: Q01DX009 (ip), vehicle: acid diluted with saline 123 % of control | dose: 16.0 mg/kg/injection, schedule: Q01DX009 (ip), vehicle: saline with Tween-80 121 % of control | dose: 16.0 mg/kg/injection, schedule: Q04DX003 (ip), vehicle: acid diluted with saline 107 % of control | dose: 16.0 mg/kg/injection, schedule: Q04DX003 (ip), vehicle: saline with Tween-80 123 % of control | dose: 32.0 mg/kg/injection, schedule: Q04DX003 (ip), vehicle: acid diluted with saline 118 % of control
active: dose: 14.0 mg/kg/injection, schedule: Q01DX009 (ip), vehicle: saline with Tween-80 165 % of control | dose: 32.0 mg/kg/injection, schedule: Q04DX003 (ip), vehicle: saline with Tween-80 180 % of control

CN1CCc2cc3c(cc2C1)OCO3
inactive: dose: 25.0 mg/kg/injection, schedule: Q01DX009 (ip), vehicle: saline 94 % of control | dose: 50.0 mg/kg/injection, schedule: Q01DX009 (ip), vehicle: saline 93 % of control | dose: 100.0 mg/kg/injection, schedule: Q01DX009 (ip), vehicle: saline 95 % of control

N#Cc1ccccc1N=NNc1ccccc1C#N
inactive: dose: 0.78 mg/kg/injection, schedule: Q01DX009 (ip), vehicle: Klucel (hydroxypropylcellulose) (HPC) 90 % of control | dose: 1.56 mg/kg/injection, schedule: Q01DX009 (ip), vehicle: Klucel (hydroxypropylcellulose) (HPC) 102 % of control | dose: 3.12 mg/kg/injection, schedule: Q01DX009 (ip), vehicle: Klucel (hydroxypropylcellulose) (HPC) 96 % of control | [2] 86 % of control

CCc1cccc2ccccc12
inactive: dose: 75.0 mg/kg/injection, schedule: Q01DX009 (ip), vehicle: Klucel (hydroxypropylcellulose) (HPC) 118 % of control | dose: 150.0 mg/kg/injection, schedule: Q01DX009 (ip), vehicle: Klucel (hydroxypropylcellulose) (HPC) 121 % of control | dose: 300.0 mg/kg/injection, schedule: Q01DX009 (ip), vehicle: Klucel (hydroxypropylcellulose) (HPC) 106 % of control

N#C/C(=C\c1ccncc1)c1csc2ccccc12
inactive: [3] 88 % of control | [4] 89 % of control

Cc1ccc(N)c(Br)c1
inactive: [5] 88 % of control | [6] 88 % of control | [7] 91 % of control

C[N+](C)(C)CCOc1ccc(Cl)cc1
inactive: dose: 12.5 mg/kg/injection, schedule: Q04DX003 (ip), vehicle: Klucel (hydroxypropylcellulose) (HPC) 105 % of control | dose: 25.0 mg/kg/injection, schedule: Q04DX003 (ip), vehicle: Klucel (hydroxypropylcellulose) (HPC) 107 % of control | dose: 50.0 mg/kg/injection, schedule: Q04DX003 (ip), vehicle: Klucel (hydroxypropylcellulose) (HPC) 107 % of control | dose: 100.0 mg/kg/injection, schedule: Q04DX003 (ip), vehicle: Klucel (hydroxypropylcellulose) (HPC) 94 % of control

C(=N\Nc1nn[nH]n1)/c1ccccc1
inactive: [8] 92 % of control | [5] 96 % of control | [6] 89 % of control | [7] 90 % of control

O=c1cc(CCl)[nH]nc1CCl
inactive: dose: 1.5 mg/kg/injection, schedule: Q01DX009 (ip), vehicle: saline with Tween-80 107 % of control | [1] 116 % of control | dose: 3.12 mg/kg/injection, schedule: Q01DX009 (ip), vehicle: saline with Tween-80 123 % of control | [8] 124 % of control

C(=C\c1ccccc1)/C[P+](c1ccccc1)(c1ccccc1)c1ccccc1
inactive: dose: 0.06 mg/kg/injection, schedule: Q01DX009 (ip), vehicle: saline sonified 100 % of control | dose: 1.25 mg/kg/injection, schedule: Q01DX009 (ip), vehicle: saline sonified 93 % of control | dose: 2.5 mg/kg/injection, schedule: Q01DX009 (ip), vehicle: saline sonified 97 % of control | dose: 5.0 mg/kg/injection, schedule: Q01DX009 (ip), vehicle: saline sonified 91 % of control

C(=NCCN1CCOCC1)=NC1CCCCC1
inactive: dose: 3.13 mg/kg/injection, schedule: Q01DX009 (ip), vehicle: saline with Tween-80 108 % of control | [9] 110 % of control | [8] 114 % of control

CCNCCC#N
inactive: dose: 80.0 mg/kg/injection, schedule: Q01DX009 (ip), vehicle: saline 113 % of control | dose: 160.0 mg/kg/injection, schedule: Q01DX009 (ip), vehicle: saline 119 % of control | dose: 320.0 mg/kg/injection, schedule: Q01DX009 (ip), vehicle: saline 105 % of control

CC1(c2ccc(Cl)cc2)OC(=O)C(=Cc2ccc([N+](=O)[O-])s2)C(=O)O1 (stereo not given)
inactive: [9] 92 % of control | [8] 87 % of control

O=C(O)C(S)c1ccc2ccccc2c1 (stereo not given)
inactive: [4] 101 % of control | [10] 96 % of control

C=CCN(CC=C)CCN1CCN(CCCN2c3ccccc3Sc3ccc(C(F)(F)F)cc32)CC1
inactive: dose: 3.12 mg/kg/injection, schedule: Q01DX009 (ip), vehicle: saline 100 % of control | dose: 6.25 mg/kg/injection, schedule: Q01DX009 (ip), vehicle: saline 107 % of control | dose: 12.5 mg/kg/injection, schedule: Q01DX009 (ip), vehicle: saline 97 % of control

CCCCc1ccc(-n2c(C)c(COC(=O)NC)c(COC(=O)NC)c2C)cc1
active: [11] 159 % of control

Clc1ccc(Br)c(Cl)c1
inactive: [4] 93 % of control | [10] 93 % of control | dose: 400.0 mg/kg/injection, schedule: Q01DX009 (ip), vehicle: Klucel (hydroxypropylcellulose) (HPC) 93 % of control

N[C@H](C(=O)O)[C@@H]1CC(Cl)=NO1
active: dose: 6.0 mg/kg/injection, schedule: Q01DX009 (ip), vehicle: saline 156 % of control
inactive: dose: 0.25 mg/kg/injection, schedule: Q01DX009 (ip), vehicle: saline 93 % of control and 96 % of control and 102 % of control | dose: 0.75 mg/kg/injection, schedule: Q01DX009 (ip), vehicle: saline 112 % of control | dose: 1.5 mg/kg/injection, schedule: Q01DX009 (ip), vehicle: saline 110 % of control | dose: 3.0 mg/kg/injection, schedule: Q01DX009 (ip), vehicle: saline 114 % of control | dose: 12.0 mg/kg/injection, schedule: Q01DX009 (ip), vehicle: saline 57 % of control

CCOC(=O)C(=O)CC(=O)/C=C/c1ccccc1
inactive: [6] 94 % of control | [7] 97 % of control | dose: 200.0 mg/kg/injection, schedule: Q01DX009 (ip), vehicle: saline with Tween-80 97 % of control

Cc1c(Cl)cccc1NC(=O)Nc1ccc(Cl)c(Cl)c1
inactive: [2] 105 % of control | [11] 92 % of control | [3] 91 % of control

— PubChem BioAssay AID192 (DTP/NCI, 2004)
